Patent US6852692B1, “Composition for promoting passive extension of bladder smooth muscle” (Shionogi & Co., Ltd., priority 1999, dated 2005)

Experiments:
mesenteric artery = conditions: Nakamura et al., Jpn. J. Pharmacol. 67, 259-262 (1995), FIG. 1; cited from earlier work
urinary bladder = conditions: Nishimura et al., British J. Pharmacology, 120, 193-200 (1997), FIG. 6; cited from earlier work
urinary bladder strips [1] = test: Static tension and acetylcholine-induced contraction of rat urinary bladder strips (isometric transducer)
Procedure: Urinary bladder strips were prepared in a manner similar to that of Example 1. The urinary bladder sections were attached to an isometric transducer FD pickup TB611T (manufactured by Nippon Kohden Corporation) in Tyrode's solution. Contraction of the urinary bladder was continuously measured. Firstly, 30 nM to 1 mM acetylcholine was added to the Tyrode's solution. […] In FIG. 3, the vertical axis indicates tension (unit: g), while the horizontal axis indicates time. Contraction induced by acetylcholine was confirmed, followed by washing out acetylcholine. Thereafter, 100 nM adrenomedullin was added to the Tyrode's solution. […] Further, 30 nM to 1 mM acetylcholine was added to the Tyrode's solution. As a result, recontraction of the urinary bladder occured.

urinary bladder strips [2] = test: Extension of rat urinary bladder strips under 1 g tension (isotonic transducer); conditions: 100 nM adrenomedullin in Tyrode's solution, tension 1 g, male rat bladder strips, repeated five times, FIG. 2
Excerpt: 8 to 16 weeks old male rats were sacrificed by hammering their heads. Thereafter, the rats were decapitated, followed by exsanguination. The urinary bladders were isolated from the rats. Each isolated urinary bladder was cut into four portions, thereby obtaining urinary bladder strips (FIG. 1).
The effect of adrenomedullin on the rat urinary bladder was examined by measuring contractions of the urinary bladder strips using an isotonic transducer TD-112S (manufactured Nippon Kohden Corporation) where the tension was 1 g.
The urinary bladder strips were firstly immersed in 30 ml of Tyrode's solution with 100 nM adrenomedullin (experimental sample) or without it (control sample). In this situation, the sections were attached to the […] transducer where the tension was 1 g, to continuously measure relaxation of the urinary bladder. The composition of the Tyrode's solution is as follows: 139 mM NaCl, 2.7 mM KCl, 11.9 mM NaHCO3, 2.6 mM MgCl2.6H2O, 0.4 mM NaH2PO4.2H2O, 1.7 mM CaCl2, and 5.5 mM glucose; pH 7.4).
The above-described experiment was repeated five times. Solid colored circles indicate the results of the experimental sample, while plain circles indicate averages of the control sample. Vertical bars indicate the standard deviation of a two-way analysis of variance. The vertical axis indicates the length of relaxation (mm), while the horizontal axis indicate time (minutes).

Question: For “adrenomedullin: synthesized peptide consisting of an amino acid sequence from Tyr in position 1 to Tyr in position 50 of SEQ ID NO: 6 (rat-derived)”, which “extension of contracted mesenteric artery by addition of adrenomedullin” value (mesenteric artery) is on record?
Answer: extended by addition of adrenomedullin in a concentration-dependent manner

Question: And the “contraction or extension (active extension) of the urinary bladder on addition of adrenomedullin” value (urinary bladder)?
Answer: does not cause contraction or extension

Question: And the “contraction (static tension) of the urinary bladder after addition of adrenomedullin alone” value (urinary bladder strips [1]; 100 nM adrenomedullin in Tyrode's solution, after washing out acetylcholine, FIG. 3)?
Answer: not contracted

Question: And the “contraction induced by acetylcholine in the presence of adrenomedullin versus acetylcholine alone” value (urinary bladder strips [1]; 100 nM adrenomedullin, 30 nM to 1 mM acetylcholine)?
Answer: not significantly different

Question: And the “extension (length of relaxation) of the urinary bladder wall versus absence of adrenomedullin” value (urinary bladder strips [2])?
Answer: more extended
